# Results: patent US6673812B1, “Preventives/remedies for glaucoma” (Senju Pharmaceutical Co., Ltd., priority 1998, dated 2004)
# System: Japanese white rabbits
# Experiment: Effect on normal intraocular pressure of white rabbits
# Format: in vivo, rabbit
# Conditions: 20 μl eye drop, 0.1% or 0.03%
# Excerpt: In this experiment, 0.1% eye drop and 0.03% eye drop containing Compound A (each prepared in Example 2 and Example 3), 0.03% eye drop containing Compound B (prepared in Example 4), 0.1% eye drop and 0.03% eye drop containing Compound C (each prepared in Example 5 and Example 6) and 0.03% eye drop containing Compound D (prepared in Example 7) were used.
# Japanese white rabbits (body weight about 2 kg) purchased from Japan Laboratory Animals, INC. were used. These animals were bred in a breeding chamber set to temperature 23±3° C., humidity 55±10% and fed on limited amount of 100 g a day of a solid feed (Labo R Stock, Nihon-Nosan Kogyo K.K.). They were allowed free access to tap water. The rabbits were placed in a holding box for 5 hr a day for acclimation from 2 days prior to the test. […] After measurement of the initial value of the intraocular pressure, various eye drops (20 μl) were instilled into one eye, and a base, which was one of various eye drops except the test drug, was instilled into the other eye in the same manner and taken as the control eye.
# The intraocular pressure was measured with time at 30, 60, 90, 120, 150 and 180 min after instillation and thereafter at one hour intervals until the intraocular pressure returned to the initial value, and the duration of the effect was examined.
structure (smiles),measurement,value
"C[C@@H](N)c1ccc(C(=O)Nc2ccnc3[nH]ccc23)cc1.Cl.Cl.O [Compound D, (R)-(+)-N-(1H-pyrrolo[2,3-b]pyridin-4-yl)-4-(1-aminoethyl)benzamide 2HCl 1H2O]","character (onset, duration) of intraocular pressure lowering effect",marked and long lasting intraocular pressure lowering effect
